From PMC11714206, “Massively Parallel Screening of Toll/Interleukin‐1 Receptor (TIR)‐Derived Peptides Reveals Multiple Toll‐Like Receptors (TLRs)‐Targeting Immunomodulatory Peptides” (Advanced Science, 2024)
Values belong to the sequence of their own block, whether it stands above or below them.

Biological target: T1, MyD88^TIR (Homo sapiens, UniProt Q99836)
T1 construct: MyD88 (residues 148–296); 6xHis; made in house; host or cells: E. coli BL21 (DE3)
Experiment: T‐Surf phage library (P8 and P3) selection against MyD88^TIR, four rounds, NGS read counts
Assay type: binding
Details: for P3_MyD88 Rank (after) / P3_MyD88 Rank (before): P3 library; for P8_MyD88 Rank (after) / P8_MyD88 Rank (before): P8 library; for Population: 4th round of selection against MyD88 TIR, share of NGS reads
How it was run: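 Read counts come from NGS of phage pools after the fourth selection round, barcoded by 20-cycle PCR and filtered for quality ≥30. Each round: phage incubated 1 h at RT on immobilised TIR protein (5 µg mL^−1, BSA-blocked), washed, HCl-eluted and amplified in E. coli TG1.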

[1] = 4R selection against MyD88, rank after grouping
[2] = 4R selection against MyD88, rank before grouping
[3] = P8_MyD88: rank by NGS read count after grouping
[4] = P8_MyD88: rank by NGS read count before grouping
[5] = selection against MyD88, rank by count after grouping
[6] = selection against MyD88, rank by count before grouping
[7] = selection against MyD88, rank after grouping
[8] = selection against MyD88, rank before grouping
[9] = selection against MyD88 TIR, rank by count after grouping
[10] = selection against MyD88 TIR, rank by count before grouping
[11] = P8_MyD88: rank by count after grouping
[12] = P8_MyD88: rank by count before grouping
[13] = P8_MyD88 pool: P8 T-Surf phage library
[14] = P3_MyD88 pool: P3 T-Surf phage library
[15] = P3_MyD88: rank by count after grouping
[16] = P3_MyD88: rank by count before grouping

T1 sequence (Q99836 148-296): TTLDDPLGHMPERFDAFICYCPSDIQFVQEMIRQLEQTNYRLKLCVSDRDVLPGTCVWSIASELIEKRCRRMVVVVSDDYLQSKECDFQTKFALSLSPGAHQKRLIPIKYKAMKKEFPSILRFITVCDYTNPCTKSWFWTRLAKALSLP

- P3_MyD88 Rank (after) [1]: 634
- P3_MyD88 Rank (before) [2]: 1728
Sequence: YNFISHLYDALRLNKIAPF

- Rank (after) [3]: 1025
- Rank (before) [4]: 2122
Sequence: YSQHDVLWVKNFLSHI

- P8_MyD88 Rank (after) [5]: 765
- P8_MyD88 Rank (before) [6]: 3753
Sequence: RFGGDTFLEYLVLISM

- P8_MyD88 Rank (after) [5]: 719
- P8_MyD88 Rank (before) [6]: 2097
Sequence: YPQDLDWFYERLVSQF

- P3_MyD88 Rank (after) [7]: 498
- P3_MyD88 Rank (before) [8]: 1376
Sequence: FLSYREGLWRLLELSKK

- P3_MyD88 Rank (after) [9]: 197
- P3_MyD88 Rank (before) [10]: 2486
Sequence: LKVESWRQALAKAGRL

- Rank (after) [11]: 426
- Rank (before) [12]: 3247
Sequence: LGYHWIAWECFVGIED

- P3_MyD88 Rank (after) [5]: 717
- P3_MyD88 Rank (before) [6]: 3230
Sequence: SSFRKGVWRVRKLSKK

- P3_MyD88 Rank (after) [5]: 730
- P3_MyD88 Rank (before) [6]: 1850
Sequence: GEDTRYTYRPSACDP

- Rank (after) [3]: 1010
- Rank (before) [4]: 3025
Sequence: DPQLLVCFYERVVRMF

- P3_MyD88 Rank (after) [7]: 505
- P3_MyD88 Rank (before) [8]: 2318
Sequence: LVAMKLPRACLKRLK

- Rank (after) [11]: 158
- Rank (before) [12]: 175
- Population [13]: 0.00809%
Sequence: QWALEELRLIMELHSV

- Population [14]: 0.00437%
Sequence: EWIREQLRPALKEHLP

- Rank (after) [11]: 476
- Rank (before) [12]: 2687
Sequence: DPQARDCFYERLVSLF

- Rank (after) [11]: 464
- Rank (before) [12]: 2165
Sequence: VANILGCHWIDWECFV

- P3_MyD88 Rank (after) [9]: 204
- P3_MyD88 Rank (before) [10]: 1552
Sequence: YALTCHLHRYLVQRGV

- Rank (after) [3]: 889
- Rank (before) [4]: 2308
Sequence: GLSWGPYEWWIDLYDA

- P3_MyD88 Rank (after) [1]: 629
- P3_MyD88 Rank (before) [2]: 2693
Sequence: RSFREGLWRLLELRKK

- P8_MyD88 Rank (after) [1]: 581
- P8_MyD88 Rank (before) [2]: 3518
Sequence: HWIDWVWDYLLPNLEGPAG

- Population [14]: 0.00378%
Sequence: YAFTGHLHRYLVQRGV

- P3_MyD88 Rank (after) [9]: 280
- P3_MyD88 Rank (before) [10]: 3218
Sequence: SSFREGQWCLMELCKK

- Rank (after) [15]: 410
- Rank (before) [16]: 2692
Sequence: RELGVVDDGSVSALEM

- P8_MyD88 Rank (after) [9]: 284
- P8_MyD88 Rank (before) [10]: 664
Sequence: YELDFSHFWLFDGQAGGEA

- P8_MyD88 Rank (after) [5]: 684
- P8_MyD88 Rank (before) [6]: 2656
Sequence: DPQVLEWFYELLVSLL

- Rank (after) [15]: 176
- Rank (before) [16]: 2525
Sequence: LKVENWRQAMEKAGKL

- Rank (after) [3]: 929
- Rank (before) [4]: 1947
Sequence: YELDFSHFCCLMARR

- P8_MyD88 Rank (after) [7]: 571
- P8_MyD88 Rank (before) [8]: 2084
Sequence: YLKWGYPWFWDRLRFA

- P8_MyD88 Rank (after) [9]: 283
- P8_MyD88 Rank (before) [10]: 1593
Sequence: WDFASNMAQFWDRRYY

- Rank (after) [3]: 936
- Rank (before) [4]: 2966
Sequence: DPQDQDWVYERLVSLF

- P8_MyD88 Rank (after) [1]: 590
- P8_MyD88 Rank (before) [2]: 3565
Sequence: QDLGWFYERLVSLF

- Rank (after) [15]: 446
- Rank (before) [16]: 2130
Sequence: EWIREHLRLALKERLP

- Rank (after) [15]: 481
- Rank (before) [16]: 2231
Sequence: ESILNHMRRSSQSIAN

- P3_MyD88 Rank (after) [7]: 487
- P3_MyD88 Rank (before) [8]: 1999
Sequence: DHHLDLPWGKAKKPEILG

- P3_MyD88 Rank (after) [9]: 227
- P3_MyD88 Rank (before) [10]: 1676
Sequence: YTALTNSGFHTFRDHE

- Rank (after) [15]: 129
- Rank (before) [16]: 631
Sequence: DHHLICRVAKRLNRKFW

- P8_MyD88 Rank (after) [9]: 256
- P8_MyD88 Rank (before) [10]: 2682
Sequence: DPQALAWFYERLVSLF

- P8_MyD88 Rank (after) [1]: 617
- P8_MyD88 Rank (before) [2]: 3328
Sequence: LGYQGIDGEYFVGIED

- P8_MyD88 Rank (after) [9]: 266
- P8_MyD88 Rank (before) [10]: 2851
Sequence: DPQDLEWFYERLVSRF

- P8_MyD88 Rank (after) [5]: 747
- P8_MyD88 Rank (before) [6]: 1418
Sequence: WALDELLQILHVSEMF

- P8_MyD88 Rank (after) [9]: 244
- P8_MyD88 Rank (before) [10]: 2882
Sequence: DPQDLEWFYERLVSLFL

- P3_MyD88 Rank (after) [9]: 231
- P3_MyD88 Rank (before) [10]: 1895
Sequence: AVDNETDKIQTPLKNE

- P8_MyD88 Rank (after) [7]: 501
- P8_MyD88 Rank (before) [8]: 1303
Sequence: FAANPLSFHVRVKLGG

- Rank (after) [11]: 121
- Rank (before) [12]: 724
Sequence: DPQDLDWFYKRLVSLL

- Rank (after) [11]: 416
- Rank (before) [12]: 899
Sequence: WPQDPQDLGWFYERLE

- Population [13]: 0.0177%
Sequence: ELDFSHFWLFDGHATGEA

- Rank (after) [11]: 452
- Rank (before) [12]: 2660
Sequence: DPQVRDWFYERAVSLF
